In brackets after ≈: the same amount, converted by molar mass.
Assays:
[1] = system: Mannheimia haemolytica (s = susceptible); experiment: MIC determination by microdilution in liquid medium, Man hae s; type: cell-based; conditions: susceptible strain
[2] = system: M. bovirhinis; experiment: MIC determination by microdilution in liquid medium, M. bovirhinis; type: cell-based; conditions: Mycoplasma
[3] = system: Escherichia coli; experiment: MIC determination by microdilution in liquid medium, E coli; type: cell-based
[4] = system: Bordetella bronchiseptica; experiment: MIC determination by microdilution in liquid medium, Bor bron; type: cell-based
[5] = system: E. coli ATCC 25922; experiment: MIC determination by microdilution in liquid medium, E. coli ATCC 25922; type: cell-based; conditions: Escherichia coli, ATCC25922
[6] = system: Staphylococcus aureus (s = susceptible); experiment: MIC determination by microdilution in liquid medium, Sta aur s; type: cell-based; conditions: susceptible strain
[7] = system: Mannheimia haemolytica (r = resistant); experiment: MIC determination by microdilution in liquid medium, Man hae r; type: cell-based; conditions: resistant strain
[8] = system: Streptococcus uberis; experiment: MIC determination by microdilution in liquid medium, Str ube; type: cell-based
[9] = system: Clostridium perfringens; experiment: microbe, parasite or virus in culture; type: cell-based; conditions: read-out: MIC Clo per
[10] = system: Staphylococcus aureus (r = resistant); experiment: MIC determination by microdilution in liquid medium, Sta aur r; type: cell-based; conditions: read-out: MIC Sta aur r
[11] = system: E. faecalis ATCC 29212; experiment: MIC determination by microdilution in liquid medium, E. faecalis ATCC 29212; type: cell-based; conditions: Enterococcus faecalis, ATCC29212, read-out: MIC E. fae-calis ATCC 29212
[12] = system: Mycoplasma bovis; experiment: MIC determination by microdilution in liquid medium, Myc bov; type: cell-based; conditions: Mycoplasmopsis bovis
[13] = system: Pseudomonas aeruginosa (s = susceptible); experiment: MIC determination by microdilution in liquid medium, Pse aer s; type: cell-based; conditions: susceptible strain
[14] = system: Pseudomonas aeruginosa (r = resistant); experiment: MIC determination by microdilution in liquid medium, Pse aer r; type: cell-based; conditions: read-out: MIC Pse aer r

CN1COc2c(N3CCC(CNc4cnccn4)C3)c(F)cc3c(=O)c(C(=O)O)cn1c23 (centres unmarked) [Example 1, 8-fluoro-3-methyl-6-oxo-9-[3-(pyrazin-2-ylaminomethyl)-pyrrolidin-1-yl]-2,3-dihydro-6H-1-oxa-3,3a-diaza-phenalene-5-carboxylic acid]
MIC [1]: 0.06 µg/mL (≈ 0.136 µM) | MIC [2]: 0.06 µg/mL (≈ 0.136 µM) | MIC [3]: 0.25 µg/mL (≈ 0.568 µM) | MIC [4]: 0.5 µg/mL (≈ 1.14 µM) | MIC [5]: 0.12 µg/mL (≈ 0.272 µM) | MIC [6]: < 0.03 µg/mL | MIC [7]: 16 µg/mL (≈ 36.3 µM) | MIC [8]: < 0.03 µg/mL | MIC [9]: 0.06 µg/mL (≈ 0.136 µM) | MIC [10]: 0.5 µg/mL (≈ 1.14 µM) | MIC [11]: ≤ 0.03 µg/mL | MIC [12]: < 0.03 µg/mL | MIC [13]: 8 µg/mL (≈ 18.2 µM) | MIC [14]: 16 µg/mL (≈ 36.3 µM)

CN1COc2c(N3CC(N)C(C)(C)C3)c(F)cc3c(=O)c(C(=O)O)cn1c23 (racemic) [Example 33, 9-((R,S)-4-Amino-3,3-dimethyl-pyrrolidin-1-yl)-8-fluoro-3-methyl-6-oxo-2,3-dihydro-6H-1-oxa-3,3a-diaza-phenalene-5-carboxylic acid]
MIC [1]: 0.06 µg/mL (≈ 0.159 µM) | MIC [2]: 0.25 µg/mL (≈ 0.664 µM) | MIC [3]: 0.06 µg/mL (≈ 0.159 µM) | MIC [4]: 0.5 µg/mL (≈ 1.33 µM) | MIC [5]: 0.03 µg/mL (≈ 0.0797 µM) | MIC [6]: < 0.03 µg/mL | MIC [7]: 8 µg/mL (≈ 21.3 µM) | MIC [8]: 0.12 µg/mL (≈ 0.319 µM) | MIC [9]: 0.06 µg/mL (≈ 0.159 µM) | MIC [10]: 2 µg/mL (≈ 5.31 µM) | MIC [12]: 0.5 µg/mL (≈ 1.33 µM) | MIC [13]: 0.5 µg/mL (≈ 1.33 µM) | MIC [14]: 8 µg/mL (≈ 21.3 µM)

CN1COc2c(N3CCC(C(O)c4nccs4)C3)c(F)cc3c(=O)c(C(=O)O)cn1c23 (centres unmarked) [Example 38, 8-Fluoro-9-[3-(hydroxy-thiazol-2-yl-methyl)-pyrrolidin-1-yl]-3-methyl-6-oxo-2,3-dihydro-6H-1-oxa-3,3a-diaza-phenalene-5-carboxylic acid]
MIC [1]: 0.03 µg/mL (≈ 0.0672 µM) | MIC [2]: 0.25 µg/mL (≈ 0.56 µM) | MIC [3]: 0.12 µg/mL (≈ 0.269 µM) | MIC [4]: 1 µg/mL (≈ 2.24 µM) | MIC [5]: 0.12 µg/mL (≈ 0.269 µM) | MIC [6]: 0.06 µg/mL (≈ 0.134 µM) | MIC [7]: 16 µg/mL (≈ 35.8 µM) | MIC [8]: < 0.03 µg/mL | MIC [9]: < 0.03 µg/mL | MIC [10]: 2 µg/mL (≈ 4.48 µM) | MIC [11]: 0.06 µg/mL (≈ 0.134 µM) | MIC [12]: 0.12 µg/mL (≈ 0.269 µM) | MIC [13]: 4 µg/mL (≈ 8.96 µM) | MIC [14]: 32 µg/mL (≈ 71.7 µM)

CN1COc2c(N3CCC(NC(=O)C(F)(F)F)C3)c(F)cc3c(=O)c(C(=O)O)cn1c23 (centres unmarked) [Example 27, 8-Fluoro-3-methyl-6-oxo-9-[3-(2,2,2-trifluoro-acetylamino)-pyrrolidin-1-yl]-2,3-dihydro-6H-1-oxa-3,3a-diaza-phenalene-5-carboxylic acid]
MIC [1]: 0.008 µg/mL (≈ 0.018 µM) | MIC [2]: 1 µg/mL (≈ 2.25 µM) | MIC [3]: 0.03 µg/mL (≈ 0.0675 µM) | MIC [4]: 2 µg/mL (≈ 4.5 µM) | MIC [5]: 0.03 µg/mL (≈ 0.0675 µM) | MIC [6]: 0.12 µg/mL (≈ 0.27 µM) | MIC [7]: 4 µg/mL (≈ 9 µM) | MIC [8]: 0.25 µg/mL (≈ 0.563 µM) | MIC [9]: 0.25 µg/mL (≈ 0.563 µM) | MIC [10]: 8 µg/mL (≈ 18 µM) | MIC [11]: 2 µg/mL (≈ 4.5 µM) | MIC [12]: 1 µg/mL (≈ 2.25 µM) | MIC [13]: 0.06 µg/mL (≈ 0.135 µM) | MIC [14]: 2 µg/mL (≈ 4.5 µM)

Cc1cnc(NC2CCN(c3c(F)cc4c(=O)c(C(=O)O)cn5c4c3OCN5C)C2)s1 (centres unmarked) (hydrate or solvate)
melting point: 265 °C (dec.)

CN1COc2c(N3C[C@H](Nc4nccs4)C(C)(C)C3)c(F)cc3c(=O)c(C(=O)O)cn1c23 (hydrate or solvate)
melting point: 271 to 273 °C

Cc1csc(NC2CCN(c3c(F)cc4c(=O)c(C(=O)O)cn5c4c3OCN5C)C2)n1 (centres unmarked) (hydrate or solvate)
melting point: 260 °C (dec.)

CN1COc2c(N3CCC(n4ccnn4)C3)c(F)cc3c(=O)c(C(=O)O)cn1c23 (centres unmarked) (hydrate or solvate)
melting point: 264 °C (dec.)

CN1COc2c(N3CC[C@@H](n4ccnn4)C3)c(F)cc3c(=O)c(C(=O)O)cn1c23 (hydrate or solvate)
melting point: 235 °C (dec.)

Cc1cc(NC2CCN(c3c(F)cc4c(=O)c(C(=O)O)cn5c4c3OCN5C)C2)sn1 (centres unmarked) (hydrate or solvate)
melting point: 265 °C

CN1COc2c(N3CCC(O)(c4nccs4)C3)c(F)cc3c(=O)c(C(=O)O)cn1c23 (centres unmarked) (hydrate or solvate)
melting point: 252 to 253 °C

CC1Oc2c(N3CC[C@H](NC(=O)C(F)(F)F)C3)ccc3c(=O)c(C(=O)O)cn(c23)N1C (some centres unmarked) (hydrate or solvate)
melting point: 260 °C

CN1n2cc(C(=O)O)c(=O)c3cc(F)c(N4CC[C@H](NC(=O)C(F)(F)F)C4)c(c32)OC1(C)C (hydrate or solvate) [53]
melting point: 283 °C

CC1Oc2c(N3CC[C@@H](Nc4nccs4)C3)c(F)cc3c(=O)c(C(=O)O)cn(c23)N1C (some centres unmarked) (hydrate or solvate)
melting point: 224 to 226 °C

CN1COc2c(N3CCC(Nc4nncs4)C3)c(F)cc3c(=O)c(C(=O)O)cn1c23 (centres unmarked) (hydrate or solvate) [Example 10, 8-Fluoro-3-methyl-6-oxo-9-[3-([1,3,4]thiadiazol-2-ylamino)-pyrrolidin-1-yl]-2,3-dihydro-6H1-oxa-3,3a-diaza-phenalene-5-carboxylic acid]
melting point: 320 °C (dec.)

CN1COc2c(N3CCC(CNc4cnccn4)C3)c(F)cc3c(=O)c(C(=O)O)cn1c23 (centres unmarked) (hydrate or solvate) [Example 1, 8-fluoro-3-methyl-6-oxo-9-[3-(pyrazin-2-ylaminomethyl)-pyrrolidin-1-yl]-2,3-dihydro-6H-1-oxa-3,3a-diaza-phenalene-5-carboxylic acid]
melting point: 238 to 240 °C

CN1COc2c(N3C[C@H](N)C(C)(C)C3)c(F)cc3c(=O)c(C(=O)O)cn1c23 [Example 35, 9-((R)-4-Amino-3,3-dimethyl-pyrrolidin-1-yl)-8-fluoro-3-methyl-6-oxo-2,3-dihydro-6H-1-oxa-3,3a-diaza-phenalene-5-carboxylic acid]
MIC [1]: 0.06 µg/mL (≈ 0.159 µM) | MIC [3]: 0.06 µg/mL (≈ 0.159 µM) | MIC [4]: 1 µg/mL (≈ 2.66 µM) | MIC [5]: 0.03 µg/mL (≈ 0.0797 µM) | MIC [6]: 0.06 µg/mL (≈ 0.159 µM) | MIC [7]: 8 µg/mL (≈ 21.3 µM) | MIC [8]: 0.12 µg/mL (≈ 0.319 µM) | MIC [9]: 0.12 µg/mL (≈ 0.319 µM) | MIC [10]: 2 µg/mL (≈ 5.31 µM) | MIC [11]: 0.25 µg/mL (≈ 0.664 µM) | MIC [12]: 0.5 µg/mL (≈ 1.33 µM) | MIC [13]: 0.5 µg/mL (≈ 1.33 µM) | MIC [14]: 8 µg/mL (≈ 21.3 µM)

CN1COc2c(N3CCC(CNc4nccs4)C3)c(F)cc3c(=O)c(C(=O)O)cn1c23 (centres unmarked) (hydrate or solvate)
melting point: 268 to 270 °C

CN1n2cc(C(=O)O)c(=O)c3ccc(N4CC[C@@H](Nc5nccs5)C4)c(c32)OC1(C)C (hydrate or solvate)
melting point: 287 °C (dec.)

CN1COc2c(N3CCC(C(O)c4nccs4)C3)c(F)cc3c(=O)c(C(=O)O)cn1c23 (centres unmarked) (hydrate or solvate) [Example 38, 8-Fluoro-9-[3-(hydroxy-thiazol-2-yl-methyl)-pyrrolidin-1-yl]-3-methyl-6-oxo-2,3-dihydro-6H-1-oxa-3,3a-diaza-phenalene-5-carboxylic acid]
melting point: 215 to 217 °C

CN1COc2c(N3C[C@H](N)C(C)(C)C3)c(F)cc3c(=O)c(C(=O)O)cn1c23 (hydrate or solvate) [Example 35, 9-((R)-4-Amino-3,3-dimethyl-pyrrolidin-1-yl)-8-fluoro-3-methyl-6-oxo-2,3-dihydro-6H-1-oxa-3,3a-diaza-phenalene-5-carboxylic acid]
melting point: 222 °C (dec.)

Cc1cc(N[C@@H]2CCN(c3c(F)cc4c(=O)c(C(=O)O)cn5c4c3OCN5C)C2)on1 (hydrate or solvate)
melting point: 255 to 257 °C

CN1n2cc(C(=O)O)c(=O)c3cc(F)c(N4CC[C@@H](Nc5nccs5)C4)c(c32)OC1(C)C (hydrate or solvate)
melting point: 235 to 237 °C

CN1COc2c(N3CCC(NC(=O)C(F)(F)F)C3)c(F)cc3c(=O)c(C(=O)O)cn1c23 (centres unmarked) (hydrate or solvate) [Example 27, 8-Fluoro-3-methyl-6-oxo-9-[3-(2,2,2-trifluoro-acetylamino)-pyrrolidin-1-yl]-2,3-dihydro-6H-1-oxa-3,3a-diaza-phenalene-5-carboxylic acid]
melting point: 281 to 283 °C

Cc1cc(NC2CCN(c3c(F)cc4c(=O)c(C(=O)O)cn5c4c3OCN5C)C2)no1 (centres unmarked) (hydrate or solvate)
melting point: 263 °C (dec.)

Cc1cc(N[C@H]2CCN(c3c(F)cc4c(=O)c(C(=O)O)cn5c4c3OCN5C)C2)on1 (hydrate or solvate)
melting point: 255 to 257 °C

CN1n2cc(C(=O)O)c(=O)c3cc(F)c(N4CC[C@H](NC(=O)C(F)(F)F)C4)c(c32)OC1(C)C (hydrate or solvate) [51]
melting point: 217 to 219 °C

CN1n2cc(C(=O)O)c(=O)c3cc(F)c(N4C[C@H](N)C(C)(C)C4)c(c32)OC1(C)C (hydrate or solvate)
melting point: 255 to 257 °C

CN1COc2c(N3C[C@@H](Nc4nccs4)C(C)(C)C3)c(F)cc3c(=O)c(C(=O)O)cn1c23 (hydrate or solvate)
melting point: 265 °C (dec.)

Cc1nnc(NC2CCN(c3c(F)cc4c(=O)c(C(=O)O)cn5c4c3OCN5C)C2)o1 (centres unmarked) (hydrate or solvate)
melting point: 285 °C

CN1COc2c(N3CCC(N4CCCCC4)CC3)c(F)cc3c(=O)c(C(=O)O)cn1c23 (hydrate or solvate)
melting point: 249 °C (dec.)

CN1COc2c(N3CC[C@H](NC(=O)C(F)(F)F)C3)c(F)cc3c(=O)c(C(=O)O)cn1c23 [Example 28, 8-Fluoro-3-methyl-6-oxo-9-[(S)-3-(2,2,2-trifluoro-acetylamino)-pyrrolidin-1-yl]-2,3-dihydro-6H-1-oxa-3,3a-diaza-phenalene-5-carboxylic acid]
MIC [1]: 0.008 µg/mL (≈ 0.018 µM) | MIC [3]: 0.03 µg/mL (≈ 0.0675 µM) | MIC [4]: 1 µg/mL (≈ 2.25 µM) | MIC [5]: 0.03 µg/mL (≈ 0.0675 µM) | MIC [6]: 0.12 µg/mL (≈ 0.27 µM) | MIC [7]: 4 µg/mL (≈ 9 µM) | MIC [8]: 0.25 µg/mL (≈ 0.563 µM) | MIC [9]: 0.12 µg/mL (≈ 0.27 µM) | MIC [10]: 4 µg/mL (≈ 9 µM) | MIC [11]: 1 to 2 µg/mL (≈ 2.25 to 4.5 µM) | MIC [12]: 1 µg/mL (≈ 2.25 µM) | MIC [13]: 0.06 µg/mL (≈ 0.135 µM) | MIC [14]: 1 µg/mL (≈ 2.25 µM)

— patent publication US7713965B2, “7-substituted 3-carboxy-oxadiazino-quinolone derivatives, their preparation and their application as anti-bacterials” (Vetoquinol SA, priority 2008, dated 2010)
